Results as given in US9505728B2, “Triazolone compounds and uses thereof” (INCEPTION 2, INC., priority 2012, dated 2016).

target: T1, Human PPARα (Homo sapiens, UniProt Q07869); experiment: Human PPARα Reporter Assay (luciferase); assay type: cell-based; conditions: human PPARα reporter cells, overnight incubation, antagonism; read-out: Luciferase IC50
T1 construct: host or cells: proprietary non-human mammalian cells
T1 sequence (Q07869 1-468): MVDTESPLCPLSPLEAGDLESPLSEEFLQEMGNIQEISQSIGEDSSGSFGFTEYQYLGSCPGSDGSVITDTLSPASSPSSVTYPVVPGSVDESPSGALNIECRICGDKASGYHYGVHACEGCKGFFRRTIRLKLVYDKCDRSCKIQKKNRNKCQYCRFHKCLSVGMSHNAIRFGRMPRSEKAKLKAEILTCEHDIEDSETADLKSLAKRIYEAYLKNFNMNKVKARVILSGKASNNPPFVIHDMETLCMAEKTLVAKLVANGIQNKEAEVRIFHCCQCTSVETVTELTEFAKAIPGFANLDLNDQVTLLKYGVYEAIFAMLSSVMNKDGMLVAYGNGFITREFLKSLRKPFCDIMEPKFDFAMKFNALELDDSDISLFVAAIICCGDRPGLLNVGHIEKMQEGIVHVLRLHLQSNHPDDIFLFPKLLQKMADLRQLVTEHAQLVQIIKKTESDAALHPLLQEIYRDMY
Outline: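 Agonist or antagonist activity read as luciferase light from engineered reporter cells carrying human PPARα and a responsive reporter gene. Cells got compound immediately on dispensing, incubated overnight, then treatment media swapped for luciferase detection reagent.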

| SMILES | IC50 |
| --- | --- |
| CCn1c(CCCc2ccc(-c3cccc(CS(=O)(=O)NCc4ccccc4)c3)cc2)nn(Cc2ccc(C(C)(C)C)cc2)c1=O [Example 105, N-Benzyl-1-(4′-(3-(1-(4-(tert-butyl)benzyl)-4-ethyl-5-oxo-4,5-dihydro-1H-1,2,4-triazol-3-yl)propyl)-[1,1′-biphenyl]-3-yl)methanesulfonamide] | 985 nM |
| COc1ccc(-c2ccc(CCCc3nn(Cc4ccc(C(C)(C)C)cc4)c(=O)n3C)cc2)cc1CC(=O)O [Example 106, 2-(4′-(3-(1-(4-(tert-Butyl)benzyl)-4-methyl-5-oxo-4,5-dihydro-1H-1,2,4-triazol-3-yl)propyl)-4-methoxy-[1,1′-biphenyl]-3-yl)acetic acid] | 26 nM |
| CCn1c(CCCc2ccc(-c3cccc(NS(=O)(=O)N(C)C)c3)cc2)nn(Cc2ccc(C(C)(C)C)cc2)c1=O [Example 107, 3-{3-[4-(3-{[(Dimethylamino)sulfonyl]amino}phenyl)phenyl]propyl}-1-{[4-(tert-butyl)phenyl]methyl}-4-ethyl-1,2,4-triazolin-5-one] | 683 nM |
| CCn1c(CCCc2ccc(-c3ncc(NS(=O)(=O)c4ccccc4)cn3)cc2)nn(Cc2ccc(C(C)(C)C)cc2)c1=O [Example 108, N-(2-(4-(3-(1-(4-(tert-Butyl)benzyl)-4-ethyl-5-oxo-4,5-dihydro-1H-1,2,4-triazol-3-yl)propyl)phenyl)pyrimidin-5-yl)benzenesulfonamide] | 165 nM |
| CCn1c(CCCc2ccc(-c3cncc(N)c3)cc2)nn(Cc2ccc(C(C)(C)C)cc2)c1=O [Example 109, 3-(3-(4-(5-Aminopyridin-3-yl)phenyl)propyl)-1-(4-(tert-butyl)benzyl)-4-ethyl-1H-1,2,4-triazol-5(4H)-one] | 590 nM |
| CCn1c(CCCc2ccc(-c3ccc(OC)c(N(C)S(=O)(=O)c4ccccc4)n3)cc2)nn(Cc2ccc(C(C)(C)C)cc2)c1=O [Example 110, 1-{[4-(tert-Butyl)phenyl]methyl}-4-ethyl-3-[3-(4-{5-methoxy-6-[N-methyl(phenylsulfonyl)amino](2-pyridyl)}phenyl)propyl]-1,2,4-triazolin-5-one] | 534 nM |
| CCn1c(CCCc2ccc(-c3cc(OC)c(N)cn3)cc2)nn(Cc2ccc(C(C)(C)C)cc2)c1=O [Example 111, 3-{3-[4-(5-Amino-4-methoxy(2-pyridyl))phenyl]propyl}-1-{[4-(tert-butyl)phenyl]methyl}-4-ethyl-1,2,4-triazolin-5-one] | 641 nM |
| CCn1c(CCCc2ccc(-c3cc(OC)c(NS(=O)(=O)c4ccccc4)cn3)cc2)nn(Cc2ccc(C(C)(C)C)cc2)c1=O [Example 112, 1-{[4-(tert-Butyl)phenyl]methyl}-4-ethyl-3-[3-(4-{4-methoxy-5-[(phenylsulfonyl)amino](2-pyridyl)}phenyl)propyl]-1,2,4-triazolin-5-one] | 816 nM |
| CCn1c(CCCc2ccc(-c3ccc(OC)c(NS(=O)(=O)c4ccc(Cl)nc4)n3)cc2)nn(Cc2ccc(C(C)(C)C)cc2)c1=O [Example 113, 1-{[4-(tert-Butyl)phenyl]methyl}-3-{3-[4-(6-{[(6-chloro(3-pyridyl))sulfonyl]amino}-5-methoxy(2-pyridyl))phenyl]propyl}-4-ethyl-1,2,4-triazolin-5-one] | 8 nM |
| CCn1c(CCCc2ccc(-c3ccc(OC)c(NS(=O)(=O)c4ccc(OC)nc4)n3)cc2)nn(Cc2ccc(C(C)(C)C)cc2)c1=O [Example 114, 1-{[4-(tert-Butyl)phenyl]methyl}-4-ethyl-3-{3-[4-(5-methoxy-6-{[(6-methoxy(3-pyridyl))sulfonyl]amino}(2-pyridyl))phenyl]propyl}-1,2,4-triazolin-5-one] | 7 nM |
| CCn1c(CCCc2ccc(-c3cccc(CC(=O)O)c3)cc2)nn(Cc2ccc(C(C)(C)C)c(C)c2)c1=O [Example 115, 2-(4′-(3-(1-(3-Methyl-4-(tert-butyl)benzyl)-4-ethyl-5-oxo-4,5-dihydro-1H-1,2,4-triazol-3-yl)propyl)-[1,1′-biphenyl]-3-yl) acetic acid] | 116 nM |
| CCC(=O)NS(=O)(=O)Cc1cccc(-c2ccc(CCCc3nn(Cc4ccc(C(C)(C)C)cc4)c(=O)n3CC)cc2)c1 [Example 116, N-(((4′-(3-(1-(4-(tert-Butyl)benzyl)-4-ethyl-5-oxo-4,5-dihydro-1H-1,2,4-triazol-3-yl)propyl)-[1,1′-biphenyl]-3-yl)methyl)sulfonyl)propionamide] | 987 nM |
| CCn1c(CCCc2ccc(-c3cncc(NS(=O)(=O)c4ccccc4)c3)cc2)nn(Cc2ccc(C(C)(C)C)cc2)c1=O [Example 117, N-(5-(4-(3-(1-(4-(tert-Butyl)benzyl)-4-ethyl-5-oxo-4,5-dihydro-1H-1,2,4-triazol-3-yl)propyl)phenyl)pyridin-3-yl)benzenesulfonamide] | 799 nM |
| CCn1c(CCCc2ccc(-c3cnc(NS(=O)(=O)c4ccccc4)cn3)cc2)nn(Cc2ccc(C(C)(C)C)cc2)c1=O [Example 118, N-(5-(4-(3-(1-(4-(tert-Butyl)benzyl)-4-ethyl-5-oxo-4,5-dihydro-1H-1,2,4-triazol-3-yl)propyl)phenyl)pyrazin-2-yl)benzenesulfonamide] | 446 nM |
| CCn1c(CCCc2ccc(-c3cnc(NS(=O)(=O)Cc4ccccc4)cn3)cc2)nn(Cc2ccc(C(C)(C)C)cc2)c1=O [Example 119, N-(5-(4-(3-(1-(4-(tert-Butyl)benzyl)-4-ethyl-5-oxo-4,5-dihydro-1H-1,2,4-triazol-3-yl)propyl)phenyl)pyrazin-2-yl)-1-phenylmethanesulfonamide] | 941 nM |
| CCOc1ccc(-c2ccc(CCCc3nn(Cc4ccc(C(C)(C)C)cc4)c(=O)n3CC)cc2)cc1C1(C#N)CC1 [Example 120, 1-(4′-(3-(1-(4-(tert-Butyl)benzyl)-4-ethyl-5-oxo-4,5-dihydro-1H-1,2,4-triazol-3-yl)propyl)-4-ethoxy-[1,1′-biphenyl]-3-yl)cyclopropanecarbonitrile] | 604 nM |
| CCn1c(CCCc2ccc(-c3ccc(OC(F)F)c(C(=O)O)c3)cc2)nn(Cc2ccc(C(C)(C)C)cc2)c1=O [Example 121, 4′-(3-(1-(4-(tert-Butyl)benzyl)-4-ethyl-5-oxo-4,5-dihydro-1H-1,2,4-triazol-3-yl)propyl)-4-(difluoromethoxy)-[1,1′-biphenyl]-3-carboxylic acid] | 39 nM |
| CCOc1ccc(-c2ccc(CCCc3nn(Cc4ccc(C(C)(C)C)cc4)c(=O)n3CC)cc2)cc1C1(C(=O)O)CC1 [Example 122, 1-(4′-(3-(1-(4-(tert-Butyl)benzyl)-4-ethyl-5-oxo-4,5-dihydro-1H-1,2,4-triazol-3-yl)propyl)-4-ethoxy-[1,1′-biphenyl]-3-yl)cyclopropanecarboxylic acid] | 188 nM |
| CCn1c(CCCc2ccc(-c3ccc(OC)c(S(=O)(=O)Nc4ccccn4)c3)cc2)nn(Cc2ccc(C(C)(C)C)cc2)c1=O [Example 123, 4′-(3-(1-(4-(tert-Butyl)benzyl)-4-ethyl-5-oxo-4,5-dihydro-1H-1,2,4-triazol-3-yl)propyl)-4-methoxy-N-(pyridin-2-yl)-[1,1′-biphenyl]-3-sulfonamide] | 186 nM |
| CCn1c(CCCc2ccc(-c3ccc(NS(=O)(=O)c4ccccc4)c(C)n3)cc2)nn(Cc2ccc(C(C)(C)C)cc2)c1=O [Example 124, 1-{[4-(tert-Butyl)phenyl]methyl}-4-ethyl-3-[3-(4-{6-methyl-5-[(phenylsulfonyl)amino](2-pyridyl)}phenyl)propyl]-1,2,4-triazolin-5-one] | 290 nM |
| CCn1c(CCCc2ccc(-c3ccc(NS(=O)(=O)Cc4ccccc4)c(C)n3)cc2)nn(Cc2ccc(C(C)(C)C)cc2)c1=O [Example 125, 1-{[4-(tert-Butyl)phenyl]methyl}-4-ethyl-3-{3-[4-(6-methyl-5-{[benzylsulfonyl]amino}(2-pyridyl))phenyl]propyl}-1,2,4-triazolin-5-one] | 356 nM |
| CCn1c(CCCc2ccc(-c3cc(C)c(NS(=O)(=O)c4ccccc4)cn3)cc2)nn(Cc2ccc(C(C)(C)C)cc2)c1=O [Example 126, 1-{[4-(tert-Butyl)phenyl]methyl}-4-ethyl-3-[3-(4-{4-methyl-5-[(phenylsulfonyl)amino](2-pyridyl)}phenyl)propyl]-1,2,4-triazolin-5-one] | 201 nM |
| CCn1c(CCCc2ccc(-c3cc(C)c(NS(=O)(=O)Cc4ccccc4)cn3)cc2)nn(Cc2ccc(C(C)(C)C)cc2)c1=O [Example 127, 1-{[4-(tert-Butyl)phenyl]methyl}-4-ethyl-3-{3-[4-(4-methyl-5-{[benzylsulfonyl]amino}(2-pyridyl))phenyl]propyl}-1,2,4-triazolin-5-one] | 445 nM |
| CCn1c(CCCc2ccc(-c3ccc(OC)c(C4(C(=O)O)CC4)c3)cc2)nn(Cc2ccc(C(C)(C)C)cc2)c1=O [Example 128, 1-(4′-(3-(1-(4-(tert-Butyl)benzyl)-4-ethyl-5-oxo-4,5-dihydro-1H-1,2,4-triazol-3-yl)propyl)-4-methoxy-[1,1′-biphenyl]-3-yl)cyclopropanecarboxylic acid] | 281 nM |
| CCn1c(CCCc2ccc(-c3cncc(NS(=O)(=O)c4ccccc4)n3)cc2)nn(Cc2ccc(C(C)(C)C)cc2)c1=O [Example 129, N-(6-(4-(3-(1-(4-(tert-Butyl)benzyl)-4-ethyl-5-oxo-4,5-dihydro-1H-1,2,4-triazol-3-yl)propyl)phenyl)pyrazin-2-yl)benzenesulfonamide] | 36 nM |
